{
  "source": "patent EP3866610B1",
  "about": "“CHOCOLATE MATRIX COMPRISING CURCUMIN AND RESVERATROL” (priority 2018, dated 2020)",
  "key": {"[1]": {"type": "physicochemical", "procedure": "(§1) The SSF was prepared following the instructions included in the article published by Minekus et al. in 2014 in the journal Food & Function (Minekus M, Alminger M, Alvito P, et al. A standardized static in vitro digestion method suitable for food - an international consensus. Food & Funct. 2014. 5:1113-1124). In detail, the SSF was prepared by mixing the following saline solutions: • KCI at the concentration of 15.1 mmol/l, • KH2PO4 at the concentration of 3.7 mmol/l, • NaHCO3 at the concentration of 13.6 mmol/l, • MgCl2(H2O)6 at the concentration of 0.15 mmol/l, and • (NH4)2CO3 at the concentration of 0.06 mmol/l. […]\n(§2) Each sample as illustrated below was analysed in triplicate and the concentration of curcumin and resveratrol was calculated on the basis of two calibration curves previously constructed using the curcumin and resveratrol supplied as reference substance and dissolved in 96% ethanol. For processing the calibration curves, the curcumin and resveratrol solutions (prepared by dissolving an exactly weighed quantity of substance in 96% ethanol) were prepared and subjected to analysis in a concentration range, from 0.5 to 200 µg/ml . […]"}, "physchem [2]": {"assay": "physchem", "type": "physicochemical", "conditions": "dmem medium, mean of technical triplicates, read-out: Concentration in DMEM medium", "procedure": "(§3) The chromatography analyses were performed using a HPLC-DAD Agilent 1100 system (Agilent, Waldbronn, Germany), comprising a quaternary pump, self-sampler with thermostat equipped with a 100 µl injection loop, column thermostat, DAD Agilent 1100 detector (Agilent, Waldbronn, Germany). For the system control and data analysis the Chemstation software was used. The separation of the compounds was obtained with a Gemini C18 110A analytical column (150 mm × 2 mm; particle diameter 5 µm), connected to a suitable pre-column, both purchased from Phenomenex, Torrance, CA, USA. […]\nas §2\nSubsequently, the cell pellet was re-suspended in 24 ml of DMEM medium and the sample was centrifuged at 6000 rpm for 10 minutes to remove the insoluble part. […] The quantities of the compounds added to the medium and were selected on the basis of the first experimental phase. […]"}, "physchem [3]": {"assay": "physchem", "type": "physicochemical", "conditions": "maltitol 1.35 g, curcumin 50 mg, resveratrol 50 mg, extraction with 6 ml SSF at room temperature", "procedure": "as §1, §2"}, "HaCat cells": {"system": "HaCat cells", "type": "in vitro ADME, Human", "conditions": "HaCat cells incubated 120 minutes at 37°C, mean of technical triplicates", "procedure": "as §3, §2\nThe cells were detached mechanically using a scraper in 2 ml of PBS and transferred into a 15 ml Falcon test tube for being centrifuged at 1500 rpm for 5 minutes. […] The results obtained, reported in Table 4, were expressed as a mean of the technical triplicates. […]"}},
  "note": "Read-outs that look alike come from different tables or passages of the source.",
  "data": [
    {"smiles": "COc1cc(/C=C/C(=O)CC(=O)/C=C/c2ccc(O)c(OC)c2)ccc1O", "note": "[Curcumin]", "values": [
      {"measurement": "solubility in SSF", "setting": "[1]", "result": "substantial insolubility"}
    ]},
    {"smiles": "Oc1ccc(/C=C/c2cc(O)cc(O)c2)cc1", "note": "[Resveratrol, 3,5,4'-trihydroxy-trans-stilbene]", "values": [
      {"measurement": "solubility", "setting": "physchem [2]; no matrix, 167 mg curcumin and 167 mg resveratrol in 20 ml DMEM, filtered", "result": 31.8, "unit": "µg/mL"},
      {"measurement": "solubility", "setting": "physchem [2]; with chocolate matrix: 200 mg curcumin, 200 mg resveratrol, 5.4 g maltitol, 12 g dark chocolate, 799.2 µl ethanol, hexane-defatted, re-suspended in 24 ml DMEM", "result": 125, "unit": "µg/mL"},
      {"measurement": "Concentration", "setting": "physchem [3]; SAMPLE 2: 2.8528 g dark chocolate, ethanol 99.9 µL", "result": 82470, "unit": "ng/mL"},
      {"measurement": "solubility", "setting": "physchem [3]; simulated salivary fluid, SAMPLE 1: 2.8528 g dark chocolate, ethanol 199.8 µL, read-out: Concentration", "result": 156, "unit": "µg/mL"},
      {"measurement": "Concentration in cell pellet (absorption by the cells)", "setting": "HaCat cells; no matrix, pellet re-suspended in 500 µl 96° ethanol", "result": 0, "unit": "ng/mL"},
      {"measurement": "Concentration in cell pellet (absorption by the cells)", "setting": "HaCat cells; with chocolate matrix, maltitol and ethanol", "result": 3660, "unit": "ng/mL"}
    ]}
  ]
}
